Assay results published in patent US11883398B2, “Dipeptidylpeptidase 4 inhibition enhances lymphocyte trafficking, improving both naturally occurring tumor immunity and immunotherapy” (INSTITUT PASTEUR, priority 2015, dated 2024).

Columns and labels:
[1] = test system: MEK1 induced skin tumors; conditions: Arwert and colleagues; cited from earlier work
[2] = test system: B16F10 tumors; assay: Histology of B16F10 tumors (CD31, CD3, H&E); assay type: in vivo, mouse; conditions: untreated vs sitagliptin-treated mice
Procedure: B16F10 tumors were dissected and fixed in JB fixative (zinc acetate 0.5%, zinc chloride 0.05%, and calcium acetate 0.05% in Tris buffer, pH 7) for 48 hours, prior to being embedded in low-melting point paraffin (Poly Ethylene Glycol Distearate; Sigma, USA). 5 μm thick paraffin sections were deparafinized in absolute ethanol, air dried, and routinely stained with hematoxylin-eosin or used for immunolabelling. For immunohistochemistry, the following primary antibodies were used: anti-CD3 (rabbit α-human, clone A0452, DAKO, Carpinteria, CA) and anti-CD31 (rat a-mouse, clone 1/75e, BD Pharmingen, Franklin Lake, NJ, USA). CD31 immunolabelled sections were digitalized using a Zeiss Axio Scan Z.1 at ×20. For histomorphometry of blood vessels, CD31 positive profiles were manually delineated on digitalized images, using the “area” tool of the Zen software (Zeiss) at a magnification of 30%. The whole tumor surface was also delineated in the same way at a magnification of 2%. Mean number of blood vessels per mm2 and mean vessel area were then calculated for each group of mice.

[3] = test system: mCXCL10; assay: Chemokine quantification in B16F10 tumor homogenates (ELISA/Luminex); assay type: in vivo, mouse
Procedure: Soluble extracts were collected after centrifugation of tumor homogenates.
For detection of mCXCL10(1-77), MAXISORP PLATES® (Nunc) were coated with 4 μg/ml of α-mCXCL10 capturing antibody (MAB466, R&D) in PBS and incubated over night at 4° C. Plates were washed twice with 300 μL of PBS. […] Tumor and plasma samples were diluted in BSA 1% and incubated for 2h, at room temperature.

[4] = test system: CXCR3-expressing T cells; assay: Model of trafficking into the peritoneal cavity; assay type: in vivo, mouse
Procedure: (§1) WT and Dpp4^−/− mice were intraperitoneally injected with PBS or 1 μg of mCXCL10, mCXCL9 or mCCL5 (all from Peprotech). At the indicated time points, mice were sacrificed and peritoneal cells were collected in 10 mL of PBS. For thioglycollate induced peritonitis mice were intraperitoneally injected with thioglycollate 3% weight/volume, 24 hours before collection of peritoneal cells.
Fluorochrome-conjugated anti-mouse CD3 (clone145-2C11), CD8 (clone 53-6.7), CD4 (clone RM4-5), NK1.1 (clone PK136), CD49b (clone DX5), CD25 (clone PC61), B220 (clone RA3-6B2), Ly6G (clone 1A8), Ly6C (clone AL-21), CD11 b (clone M1/70) Siglec-F (clone E50-2440), MHCII IA-IE (clone M5/114.15.2), CD45.2 (clones 56-0454-82 and 109830), Thy-1.1 (clone HIS51), Thy-1.2 (clone 53-2.1), DPP4 (clone H194-112) and CXCR3 (clone CXCR3-173) were from eBiosciences and BD Biosciences. Fluorochrome conjugated anti-F4/80 (clone CI:A3-1) was from AbDserotec. For exclusion of dead cells, Live/Dead fixable Aqua reagent (Invitrogen) was used. For all staining protocols, cell suspensions were incubated with mouse CD16/CD32 Fc Blocking antibodies (BD Biosciences) prior to antibody. For analysis of peritoneal cavity infiltrates, cells were washed and incubated with a cocktail of fluorochrome-conjugated antibodies. For analysis of tumor infiltrates, B16F10 tumors were collected at the indicated time points and digested in PBS supplemented with 2.7 mg/ml of Collagenase (Roche) and 23U/ml of Deoxyribonuclease I (Invitrogen) for 30 min, 37° C. Digestion was terminated by adding PBS supplemented with 2% FCS and 5 mM EDTA (Gibco). Tumor cell suspensions were obtained after filtration over a 70 μm cell strainer. For determination of cell numbers, the […] COUNTING BEADS reagent (Invitrogen) was used. Flow cytometry was performed using a BD LSRFORTESSA or a BD CANTO cytometer, with DIVA software. Computer analysis was done with FLOWJO (Treestar).

[5] = Thioglycollate induced peritonitis; assay type: in vivo, mouse; conditions: 24 h after intraperitoneal thioglycollate, sitagliptin vs control
Procedure: as §1

[6] = molecular target: DPP9 (Homo sapiens, UniProt Q86TI2); conditions: Verspohl 2012; Huan et al. 2015; cited from earlier work
Chain of DPP9 (Q86TI2 whole entry, species assumed): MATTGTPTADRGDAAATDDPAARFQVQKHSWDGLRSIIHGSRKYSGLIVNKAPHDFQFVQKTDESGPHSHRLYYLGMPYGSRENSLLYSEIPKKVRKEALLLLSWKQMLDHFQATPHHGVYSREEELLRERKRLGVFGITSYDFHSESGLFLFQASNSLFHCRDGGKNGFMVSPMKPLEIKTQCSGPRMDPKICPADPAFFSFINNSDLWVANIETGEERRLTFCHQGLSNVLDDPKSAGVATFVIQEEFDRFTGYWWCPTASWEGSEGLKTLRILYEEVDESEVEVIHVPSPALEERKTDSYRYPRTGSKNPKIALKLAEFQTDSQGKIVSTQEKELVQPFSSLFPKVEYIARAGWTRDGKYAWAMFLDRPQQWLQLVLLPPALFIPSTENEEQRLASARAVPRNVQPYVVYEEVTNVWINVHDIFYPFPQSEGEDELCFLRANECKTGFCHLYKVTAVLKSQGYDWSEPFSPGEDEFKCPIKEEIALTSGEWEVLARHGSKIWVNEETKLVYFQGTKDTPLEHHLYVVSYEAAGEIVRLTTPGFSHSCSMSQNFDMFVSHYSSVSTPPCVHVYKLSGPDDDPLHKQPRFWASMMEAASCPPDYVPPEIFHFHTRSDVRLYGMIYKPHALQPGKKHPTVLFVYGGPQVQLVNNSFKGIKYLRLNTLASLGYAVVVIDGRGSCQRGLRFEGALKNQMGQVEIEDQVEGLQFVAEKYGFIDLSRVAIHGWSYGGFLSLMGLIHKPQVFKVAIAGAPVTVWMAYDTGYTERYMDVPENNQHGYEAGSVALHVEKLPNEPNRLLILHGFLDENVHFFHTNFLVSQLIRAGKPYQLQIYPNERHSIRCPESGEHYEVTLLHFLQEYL

N[C@@H](CC(=O)N1CCn2c(nnc2C(F)(F)F)C1)Cc1cc(F)c(F)cc1F [sitagliptin]
malignant transformation [1]: delays malignant transformation
number and diameter of tumor blood vessels (CD31 staining) [2]: no difference in the number, nor the diameter of blood vessels
tumor associated mCXCL10 concentration ([3]; B16F10 tumors, sitagliptin-treated vs control mice): elevated concentrations
full-length mCXCL10(1-77) among total mCXCL10 in tumor ([3]; after intra-tumoral CpG-A, sitagliptin vs control): protected the full-length form of the molecule
intra-tumoral expression of mCCL2 and mCCL22 after CpG-A ([3]; control vs sitagliptin treated animals): no significant differences
recruitment of polymorphonuclear cells into the peritoneal cavity ([4]; after intraperitoneal mCXCL10, control or sitagliptin-fed mice): did not show differential recruitment
CXCR3 expression on peripheral blood T cells ([4]; after intraperitoneal mCXCL10, sitagliptin vs control): unaltered CXCR3 expression
mCXCL10-mediated infiltration of T cells into the peritoneal cavity ([4]; intraperitoneal mCXCL10, sitagliptin vs control chow): enhanced mCXCL10-mediated infiltration of T cells
CXCR3 plasma membrane expression on migrating T cells ([4]; peritoneal cavity after mCXCL10 injection, sitagliptin vs control): lower
thioglycollate-induced neutrophil, monocyte and eosinophil migration [5]: no differences were observed
effect on DPP9 activity [6]: no effect
